In US20250243176A1, “(S)-1-(1-ACRYLOYLPIPERIDIN-3-YL)-2-FLUORO-5,6,7,8,9,10-HEXAHYDROCYCLO HEPTA[B]INDOLE-4-CARBOXAMIDE, AND RELATED CRYSTALLINE FORMS, COMPOSITIONS, AND METHODS THEREOF” (GB005, Inc., priority 2021, published 2025):
Values after ≈ are worked out from the molar mass of the structure shown. Read-outs that look alike come from different tables or passages of the source.

Experiments:
[1] = target: T1, Bruton's tyrosine kinase (BTK) (Homo sapiens, UniProt Q06187); experiment: BTK whole blood functional assay; format: cell-based
T1 construct: from tissue; host or cells: whole blood
T1 sequence (Q06187 whole entry, species assumed): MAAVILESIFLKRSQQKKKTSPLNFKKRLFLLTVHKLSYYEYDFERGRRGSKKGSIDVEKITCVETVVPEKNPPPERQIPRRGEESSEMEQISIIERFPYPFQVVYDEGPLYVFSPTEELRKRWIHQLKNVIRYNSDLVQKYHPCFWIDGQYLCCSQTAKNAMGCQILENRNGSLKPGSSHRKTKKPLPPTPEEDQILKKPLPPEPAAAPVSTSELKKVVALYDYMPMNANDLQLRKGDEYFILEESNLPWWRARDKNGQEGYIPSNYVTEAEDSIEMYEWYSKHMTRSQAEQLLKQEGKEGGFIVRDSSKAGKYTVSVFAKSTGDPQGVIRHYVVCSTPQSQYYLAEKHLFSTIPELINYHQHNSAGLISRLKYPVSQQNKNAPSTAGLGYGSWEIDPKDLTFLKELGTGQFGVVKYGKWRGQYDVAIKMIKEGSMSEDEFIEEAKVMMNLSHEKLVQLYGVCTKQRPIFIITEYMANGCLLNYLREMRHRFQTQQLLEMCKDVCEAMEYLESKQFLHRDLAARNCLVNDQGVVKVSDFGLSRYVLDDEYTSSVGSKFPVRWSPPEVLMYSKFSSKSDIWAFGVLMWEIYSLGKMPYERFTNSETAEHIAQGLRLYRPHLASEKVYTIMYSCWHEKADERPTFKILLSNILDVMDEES
Description: (§1) (S)-1-(1-acryloylpiperidin-3-yl)-2-fluoro-5,6,7,8,9,10-hexahydrocyclohepta[b]indole-4-carboxamide, hereinafter referred to as “Compound 1”, is an orally available, selective, potent inhibitor of Bruton's tyrosine kinase (BTK), thereby providing potential treatment options in BTK-driven diseases. The potency of Compound 1 for BTK inhibition is in the nM range in both cell-free enzymatic and whole blood functional assays.

[2] = target: T2, TEC (Homo sapiens, UniProt P42680); experiment: Kinome scan, TEC; format: biochemical
T2 sequence (P42680 1-631): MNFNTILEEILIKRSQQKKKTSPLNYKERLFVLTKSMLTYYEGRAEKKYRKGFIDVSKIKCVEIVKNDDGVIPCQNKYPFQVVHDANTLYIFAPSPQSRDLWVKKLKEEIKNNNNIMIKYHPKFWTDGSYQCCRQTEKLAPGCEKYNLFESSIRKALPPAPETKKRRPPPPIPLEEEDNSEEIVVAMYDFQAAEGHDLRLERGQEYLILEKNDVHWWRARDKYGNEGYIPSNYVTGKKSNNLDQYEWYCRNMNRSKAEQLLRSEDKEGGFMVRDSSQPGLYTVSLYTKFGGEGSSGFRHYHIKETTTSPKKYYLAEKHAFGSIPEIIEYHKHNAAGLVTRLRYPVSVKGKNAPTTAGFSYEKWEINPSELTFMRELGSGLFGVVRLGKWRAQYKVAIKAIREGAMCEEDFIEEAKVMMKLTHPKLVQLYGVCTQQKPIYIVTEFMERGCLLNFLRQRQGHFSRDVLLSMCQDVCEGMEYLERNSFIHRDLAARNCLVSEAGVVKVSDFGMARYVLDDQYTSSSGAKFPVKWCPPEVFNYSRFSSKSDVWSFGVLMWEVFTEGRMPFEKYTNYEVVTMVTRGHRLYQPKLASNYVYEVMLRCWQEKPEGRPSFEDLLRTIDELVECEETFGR
Description: as §1

[3] = Stability testing of formulations and Compound 1 alone (impurities, HPLC); format: physicochemical; details: 40° C.
Procedure: Both gels were prepared using Titanium Dioxide, Iron Oxide, Red and FD&C Blue #1 as colorants. One dried swatch of gel 004007 was added to the gel 1 samples and one dried swatch of 004013 was added to gel 2.
The samples were stored in 6 mL amber glass vials at: room temperature, 40° C., 50° C. and 5° C. for up 8 weeks. Control samples (Compound 1 alone) were analyzed in parallel with the study samples and control peaks were subtracted from the total impurities.

[4] = Phase 1 CSF penetrance (CSF/unbound plasma concentration); format: in vivo; details: both sexes, human, oral; for Kp at 2 h: CSF / unbound plasma
Procedure: Safety is assessed throughout the study and PK and PD are characterized using serial blood samples collected up to 48 hours post-dose for Compound 1 plasma concentrations, BTK target occupancy (TO) and target engagement (TE). Cerebrospinal fluid (CSF) samples are collected at 2 hours post-dose to characterize the relationship between Compound 1 plasma concentrations and CNS penetrance (CSF/Unbound plasma concentration). Compound 1 PK parameters (e.g., AUClast, AUCinf, Cmax, Tmax, t1/2) are estimated by standard noncompartmental methods.
Mean Compound 1 CSF:unbound plasma concentration ratios approximated 1 indicating unimpeded access of unbound drug in plasma into the CNS (see, e.g., Table 46, reported as Mean (% coefficient of variation), and FIG. 26 showing CSF to unbound plasma ratio by dose).

[5] = Solubility testing in aqueous media at various pH (Form III); format: physicochemical; details: thermodynamic from solid
Procedure: 0.833 mL concentrated hydrochloric acid was diluted to 100 mL with water (pH=1.0).
Added appropriate amount of water to 0.1N HCl, adjust the pH to 1.2.
KH2PO4 (1360.0 mg) and NaOH (310.0 mg) are mixed in a 200 mL volumetric flask. Water was added to dissolve the solid and dilute to the volume. The flask was shaken to achieve good mixing. (pH=7.42).
Solubility was measured in pH 1.0 water, pH 1.2 buffer and pH 7.4 buffer at room temperature and 37° C. About 10-15 mg of sample was weighed into sample vials and then 2.0/3.0 mL of 0.1 N HCl solution, pH 1.2 buffer and pH 7.4 buffer media, and water were added, respectively. Samples were run in duplicate for each medium. The suspensions were shaken at room temperature or 37° C. Residual solid was collected for XRPD analysis, though no form change occurred during testing. In all instances, very low solubility was observed.

[6] = pH 7.4 buffer (KH2PO4/NaOH), aqueous buffer, pH 7.4 Buffer, 37° C.
[7] = pH 7.4 buffer (KH2PO4/NaOH), aqueous buffer, pH 7.4 Buffer, RT
[8] = simulated gastric fluid, pH 1.0 (0.1N HCl), RT
[9] = simulated gastric fluid, pH 1.2 Buffer, 37° C.

Which “potency for BTK inhibition” value [1] does the source give for `C=CC(=O)N1CCC[C@@H](c2c(F)cc(C(N)=O)c3[nH]c4c(c23)CCCCC4)C1` [Compound 1, (S)-1-(1-acryloylpiperidin-3-yl)-2-fluoro-5,6,7,8,9,10-hexahydrocyclohepta[b]indole-4-carboxamide] here?
The value was “nM range”.

What about the inhibition at 1 µM [2] of the same compound?
Its inhibition at 1 µM is over 50%.

What about the “Compound 1 Related Impurities, RRT 0.73” value ([3]; T = 0) of the same compound?
Its value is 0.05 % adjusted area.

What about the “Compound 1 Related Impurities, RRT 0.79” value ([3]; T = 0) of the same compound?
Its value is “<LOQ”.

What about the “Compound 1 Related Impurities, RRT 0.84” value ([3]; T = 0) of the same compound?
Its value is 0.07 % adjusted area.

What about the “Compound 1 Related Impurities, RRT 0.91” value ([3]; T = 0) of the same compound?
The value was 0.10 % adjusted area.

And the “Compound 1 Related Impurities, RRT 0.93” value ([3]; T = 0)?
The value was 0.06 % adjusted area.

What about the “Compound 1 Related Impurities, RRT 1.08” value ([3]; T = 0) of the same compound?
Its value is 0.07 % adjusted area.

What about the “Compound 1 Related Impurities, RRT 1.13” value ([3]; T = 0) of the same compound?
Its value is 0.36 % adjusted area.

What about the “Compound 1 Related Impurities, Total” value ([3]; T = 0) of the same compound?
Its value is 0.71 % adjusted area.

What about the “Compound 1 Related Impurities, RRT 0.73” value ([3]; T = 3 weeks) of the same compound?
Its value is 0.06 % adjusted area.

What about the “Compound 1 Related Impurities, RRT 0.79” value ([3]; T = 3 weeks) of the same compound?
The value was “<LOQ”.

And the “Compound 1 Related Impurities, RRT 0.84” value ([3]; T = 3 weeks)?
The value was 0.05 % adjusted area.

And the “Compound 1 Related Impurities, RRT 0.91” value ([3]; T = 3 weeks)?
Its value is 0.07 % adjusted area.

What about the “Compound 1 Related Impurities, RRT 0.93” value ([3]; T = 3 weeks) of the same compound?
The value was 0.07 % adjusted area.

And the “Compound 1 Related Impurities, RRT 1.08” value ([3]; T = 3 weeks)?
The value was 0.07 % adjusted area.

What about the “Compound 1 Related Impurities, RRT 1.13” value ([3]; T = 3 weeks) of the same compound?
The value was 0.30 % adjusted area.

And the “Compound 1 Related Impurities, Total” value ([3]; T = 3 weeks)?
Its value is 0.62 % adjusted area.

And the “Compound 1 Related Impurities, RRT 0.47” value ([3]; T = 8 weeks)?
Its value is 0.07 % adjusted area.

What about the “Compound 1 Related Impurities, RRT 0.73” value ([3]; T = 8 weeks) of the same compound?
Its value is 0.05 % adjusted area.

What about the “Compound 1 Related Impurities, RRT 0.79” value ([3]; T = 8 weeks) of the same compound?
The value was “<LOQ”.

What about the “Compound 1 Related Impurities, RRT 0.84” value ([3]; T = 8 weeks) of the same compound?
The value was 0.06 % adjusted area.

What about the “Compound 1 Related Impurities, RRT 0.91” value ([3]; T = 8 weeks) of the same compound?
The value was 0.08 % adjusted area.

And the “Compound 1 Related Impurities, RRT 0.93” value ([3]; T = 8 weeks)?
The value was 0.05 % adjusted area.

What about the “Compound 1 Related Impurities, RRT 1.04” value ([3]; T = 8 weeks) of the same compound?
Its value is 0.12 % adjusted area.

What about the “Compound 1 Related Impurities, RRT 1.08” value ([3]; T = 8 weeks) of the same compound?
Its value is 0.06 % adjusted area.

And the “Compound 1 Related Impurities, RRT 1.13” value ([3]; T = 8 weeks)?
Its value is 0.32 % adjusted area.

What about the “Compound 1 Related Impurities, Total” value ([3]; T = 8 weeks) of the same compound?
The value was 0.81 % adjusted area.

What about the Kp at 2 h ([4]; Cohort 2, 15 mg single dose, 2 hr post-dose, mean, read-out: CSF/Unbound Plasma) of the same compound?
Its Kp at 2 h is 0.95.

What about the Kp at 2 h ([4]; Cohort 3, 45 mg single dose, 2 hr post-dose, mean, read-out: CSF/Unbound Plasma) of the same compound?
The Kp at 2 h was 0.95.

What about the Kp at 2 h ([4]; healthy subjects, CSF samples at 2 hours post-dose, read-out: Mean CSF:unbound plasma concentration ratio) of the same compound?
Its Kp at 2 h is about 1.

And the concentration at 2 h ([4]; CSF, Cohort 2, 15 mg single dose, mean, read-out: CSF Conc (2 hr))?
Its concentration at 2 h is 0.9 ng/mL.

What about the concentration at 2 h ([4]; CSF, Cohort 3, 45 mg single dose, mean, read-out: CSF Conc (2 hr)) of the same compound?
Its concentration at 2 h is 2.07 ng/mL.

And the concentration at 2 h ([4]; plasma (unbound), Cohort 2, 15 mg single dose, mean, read-out: Unbound Plasma Conc @2 hr)?
Its concentration at 2 h is 0.83 ng/mL.

What about the concentration at 2 h ([4]; plasma (unbound), Cohort 3, 45 mg single dose, mean, read-out: Unbound Plasma Conc @2 hr) of the same compound?
Its concentration at 2 h is 2.33 ng/mL.

And the concentration at 2 h ([4]; plasma, Cohort 2, 15 mg single dose, mean, read-out: Plasma Conc @2 hr)?
The concentration at 2 h was 63.2 ng/mL.

What about the concentration at 2 h ([4]; plasma, Cohort 3, 45 mg single dose, mean, read-out: Plasma Conc @2 hr) of the same compound?
The concentration at 2 h was 159 ng/mL.

What about the solubility at 4 h [5, 6] of the same compound?
The solubility at 4 h was 0.8 µg/mL (≈ 2.09 µM).

And the solubility at 24 h [5, 6]?
The solubility at 24 h was 0.8 µg/mL (≈ 2.09 µM).

And the solubility at 24 h [5, 7]?
Its solubility at 24 h is 0.8 µg/mL (≈ 2.09 µM).

And the solubility at 48 h [5, 7]?
The solubility at 48 h was 1.7 µg/mL (≈ 4.43 µM).

What about the solubility at 4 h [5, 8] of the same compound?
Its solubility at 4 h is 0.7 µg/mL (≈ 1.83 µM).

What about the solubility at 24 h [5, 8] of the same compound?
Its solubility at 24 h is 0.8 µg/mL (≈ 2.09 µM).

And the solubility at 48 h [5, 8]?
Its solubility at 48 h is 1.6 µg/mL (≈ 4.17 µM).

And the solubility at 4 h [5, 9]?
The solubility at 4 h was 0.9 µg/mL (≈ 2.35 µM).

And the solubility at 24 h [5, 9]?
Its solubility at 24 h is 0.9 µg/mL (≈ 2.35 µM).

And the solubility at 4 h ([5]; Water (pH 5.0), 37° C.)?
Its solubility at 4 h is 0.6 µg/mL (≈ 1.56 µM).

And the solubility at 24 h ([5]; Water (pH 5.0), 37° C.)?
The solubility at 24 h was 0.7 µg/mL (≈ 1.83 µM).
